Data taken from patent US7517884B2 (Kalypsys Inc., priority 1998, dated 2009).

Legend:
Format in all cases: cell-based, murine and human
Details in all cases: GAL4-PPAR LBD chimera
[1] = biological target: T1, PPAR-alpha (UniProt Q07869); experiment: PPAR-alpha transactivation assay (GAL4 chimera, luciferase reporter) in CV-1 cells
T1 sequence (Q07869 1-468): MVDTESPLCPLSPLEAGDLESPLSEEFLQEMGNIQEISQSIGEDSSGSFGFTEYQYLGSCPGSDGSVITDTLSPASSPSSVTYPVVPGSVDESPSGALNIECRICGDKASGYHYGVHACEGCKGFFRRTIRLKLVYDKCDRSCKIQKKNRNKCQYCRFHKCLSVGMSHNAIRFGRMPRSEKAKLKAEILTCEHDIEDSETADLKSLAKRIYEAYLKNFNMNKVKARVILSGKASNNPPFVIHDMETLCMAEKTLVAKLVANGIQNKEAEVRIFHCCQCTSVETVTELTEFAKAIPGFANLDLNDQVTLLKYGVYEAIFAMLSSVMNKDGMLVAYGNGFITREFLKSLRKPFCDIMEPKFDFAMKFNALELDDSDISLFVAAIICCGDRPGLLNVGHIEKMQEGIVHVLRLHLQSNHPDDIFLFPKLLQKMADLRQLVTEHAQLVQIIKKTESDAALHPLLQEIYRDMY
Outline: (§1)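 CV-1 cells transiently transfected with murine or human PPAR-alpha, -gamma or -delta ligand-binding domain fused to GAL4 DNA-binding domain plus a GAL4-site luciferase reporter. After replating in phenol-red-free DME with 5% delipidated calf serum, cells were exposed to compound 20-24 h; luciferase read-out gave EC50.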

[2] = biological target: T2, PPAR-delta (UniProt Q03181); experiment: PPAR-delta transactivation assay (GAL4 chimera, luciferase reporter) in CV-1 cells
T2 sequence (Q03181 1-441): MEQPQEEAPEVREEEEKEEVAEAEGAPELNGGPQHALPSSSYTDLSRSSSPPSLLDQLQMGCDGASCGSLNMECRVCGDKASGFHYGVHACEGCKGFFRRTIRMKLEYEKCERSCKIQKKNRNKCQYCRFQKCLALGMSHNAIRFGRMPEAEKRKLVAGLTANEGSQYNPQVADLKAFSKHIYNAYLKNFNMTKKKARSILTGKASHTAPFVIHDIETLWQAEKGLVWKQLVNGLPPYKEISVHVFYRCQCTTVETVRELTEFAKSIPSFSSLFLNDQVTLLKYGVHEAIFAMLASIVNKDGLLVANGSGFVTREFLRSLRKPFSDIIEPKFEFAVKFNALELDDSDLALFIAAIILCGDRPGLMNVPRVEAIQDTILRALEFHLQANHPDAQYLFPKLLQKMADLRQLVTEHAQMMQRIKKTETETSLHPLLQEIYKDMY
Outline: as §1

[3] = biological target: T3, PPAR-gamma (UniProt P37231); experiment: PPAR-gamma transactivation assay (GAL4 chimera, luciferase reporter) in CV-1 cells
T3 sequence (P37231 1-505): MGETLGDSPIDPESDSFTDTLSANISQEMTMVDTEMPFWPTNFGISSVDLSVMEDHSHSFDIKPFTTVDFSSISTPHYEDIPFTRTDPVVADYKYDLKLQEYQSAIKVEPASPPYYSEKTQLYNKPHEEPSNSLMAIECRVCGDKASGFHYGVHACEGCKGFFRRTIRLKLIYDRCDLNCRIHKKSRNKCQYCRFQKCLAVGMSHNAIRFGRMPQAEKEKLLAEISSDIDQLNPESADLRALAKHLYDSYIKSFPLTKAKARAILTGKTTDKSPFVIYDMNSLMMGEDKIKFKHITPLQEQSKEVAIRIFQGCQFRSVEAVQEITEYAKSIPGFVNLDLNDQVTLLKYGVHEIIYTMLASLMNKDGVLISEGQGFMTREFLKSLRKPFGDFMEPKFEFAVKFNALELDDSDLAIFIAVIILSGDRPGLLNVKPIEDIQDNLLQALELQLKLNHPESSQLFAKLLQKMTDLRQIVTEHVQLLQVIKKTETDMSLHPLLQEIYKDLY
Outline: as §1

SMILES	EC50 [1] [µM]	EC50 [2] [µM]	EC50 [3] [µM]
C[C@@H]1CN(Cc2ccc(OC(F)(F)F)cc2)C[C@H](C)N1S(=O)(=O)c1cccc2c1CC(C(=O)O)C2 (single isomer, unassigned) [Example 140]	> 100	< 5	5 to 100
O=C(O)C1Cc2cccc(S(=O)(=O)N3CCN(c4cccc(C(F)(F)F)c4)CC3)c2C1 (stereo not drawn) [Example 16, 4-[4-(3-trifluoromethyl-phenyl)-piperazine-1-sulfonyl]-indan-2-carboxylic acid]	5 to 100	< 5	5 to 100
Cc1cc(N2C[C@@H](C)N(S(=O)(=O)c3ccc4c(c3)C(C(=O)O)CC4)[C@@H](C)C2)ccc1OC(F)F (stereo partly drawn) [Example 85, 6-[4-(4-difluoromethoxy-3-methyl-phenyl)-2,6-dimethyl-piperazine-1-sulfonyl]-indan-1-carboxylic acid]	5 to 100	< 5	5 to 100
O=C(O)C1Cc2cccc(S(=O)(=O)N3CCN(c4ccc(C(F)(F)F)cn4)CC3)c2C1 (single isomer, unassigned) [Example 11]	5 to 100	< 5	< 5
O=C(O)C1Cc2cccc(S(=O)(=O)N3CCN(c4ccc(OCC(F)(F)F)cc4)CC3)c2C1 (stereo not drawn) [Example 114, 4-{4-[4-(2,2,2-Trifluoro-ethoxy)-phenyl]-piperazine-1-sulfonyl}-indan-2-carboxylic acid]	5 to 100	5 to 100	5 to 100
C[C@@H]1CN(c2cc(F)cc(F)c2Cl)C[C@H](C)N1S(=O)(=O)c1cccc2c1CC(C(=O)O)C2 (stereo partly drawn) [Example 123, 4-(4-(2-Chloro-3,5-difluorophenyl)-cis-2,6-dimethylpiperazin-1-ylsulfonyl)-2,3-dihydro-1H-indene-2-carboxylic acid]	> 100	5 to 100	> 100
C[C@@H]1CN(c2ccc(C(F)(F)F)cc2)C[C@H](C)N1S(=O)(=O)c1cccc2c1CC(C(=O)O)C2 (stereo partly drawn) [Example 105, 4-[cis-2,6-Dimethyl-4-(4-trifluoromethyl-phenyl)-piperazine-1-sulfonyl]-indan-2-carboxylic acid]	5 to 100	< 5	5 to 100
O=C(O)C1Cc2cccc(S(=O)(=O)N3C4CSCC3CN(c3ccc(OC(F)(F)F)cc3)C4)c2C1 (stereo not drawn) [Example 125, 4-(7-(4-(Trifluoromethoxy)phenyl)-3-thia-7,9-diazabicyclo|3.3.1|nonan-9-ylsulfonyl)-2,3-dihydro-1H-indene-2-carboxylic acid]	> 100	< 5	> 100
C[C@@H]1CN(c2ccc(Cl)cc2)C[C@H](C)N1S(=O)(=O)c1cccc2c1CC(C(=O)O)C2 (stereo partly drawn) [Example 126, 4-[4-(4-Chlorophenyl)-cis-2,6-dimethylpiperazin-1-ylsulfonyl]-2,3-dihydro-1H-indene-2-carboxylic acid]	> 100	< 5	> 100
O=C(O)Cc1csc2ccc(S(=O)(=O)N3CCN(c4ccc(C(F)(F)F)cn4)CC3)cc12 [Example 37, {5-[4-(5-Trifluoromethyl-pyridin-2-yl)piperazine-1-sulfonyl]-benzo[b]thiophen-3-yl}-acetic acid]	5 to 100	< 5	< 5
C[C@@H]1CN(c2ccc(C(F)(F)F)c(Cl)c2)C[C@H](C)N1S(=O)(=O)c1cccc2c1CC(C(=O)O)C2 (relative stereo) [Example 82, 4-[4-(3-chloro-4-trifluoromethyl-phenyl)-cis-2,6-dimethyl-piperazine-1-sulfonyl]-indan-2-carboxylic acid]	> 100	< 5	> 100
C[C@H]1CN(c2ccc(C(F)(F)F)cn2)CCN1S(=O)(=O)c1ccc2c(c1)C(C(=O)O)CC2 (stereo partly drawn) [Example 23, 6-[2-(S)-methyl-4-(5-trifluoromethyl-pyridin-2-yl)-piperazine-1-sulfonyl]-indan-1-carboxylic acid]	< 5	< 5	< 5
CC1(C(=O)O)Cc2cccc(S(=O)(=O)N3CCN(c4ccc(C(F)(F)F)cn4)CC3)c2C1 (stereo not drawn) [Example 14, 2-methyl-4-[4-(5-trifluoromethyl-pyridin-2-yl)-piperazine-1-sulfonyl]-indan-2-carboxylic acid]	> 100	5 to 100	5 to 100
COc1cc(N2C[C@@H](C)N(S(=O)(=O)c3cccc4c3CC(C(=O)O)C4)[C@@H](C)C2)ccc1Cl (stereo partly drawn) [Example 133, 4-|4-(4-Chloro-3-methoxyphenyl)-cis-2,6-dimethylpiperazine-1-ylsulfonyl|-2,3-dihydro-1H-indene-2-carboxylic acid]	> 100	< 5	> 100
O=C(O)Cn1ccc2ccc(S(=O)(=O)N3CCN(c4ccc(OC(F)(F)F)cc4)CC3)cc21 [Example 90, {6-[4-(4-Trifluoromethoxy-phenyl)-piperazine-1-sulfonyl]-indol-1-yl}-acetic acid]	5 to 100	< 5	5 to 100
O=C(O)C1CCc2ccc(S(=O)(=O)N3CCN(c4ccc(C(F)(F)F)cc4)CC3)cc21 (stereo not drawn) [Example 19, 6-[4-(4-trifluoromethyl-phenyl)-piperazine-1-sulfonyl]-indan-1-carboxylic acid]	< 5	< 5	< 5
O=C(O)C1CCc2ccc(S(=O)(=O)N3CC=C(c4ccc(C(F)(F)F)cn4)CC3)cc21 (stereo not drawn) [Example 66, 6-(5-Trifluoromethyl-3,6-dihydro-2H-|2,4|bipyridinyl-1-sulfonyl)-indan-1-carboxylic acid]	< 5	< 5	5 to 100
C[C@H]1CN(c2ccc(OC(F)(F)F)cc2)CCN1S(=O)(=O)c1cccc2c1CC(C(=O)O)C2 (stereo partly drawn) [Example 93, 4-[2-(S)-Methyl-4-(4-trifluoromethoxy-phenyl)-piperazine-1-sulfonyl]-indan-2-carboxylic acid]	5 to 100	< 5	5 to 100
O=C(O)Cn1ccc2cc(Br)c(S(=O)(=O)N3CCN(c4ccc(C(F)(F)F)cn4)CC3)cc21 [Example 33, {5-Bromo-6-[4-(5-trifluoromethyl-pyridin-2-yl)-piperazine-1-sulfonyl]-indol-1-yl}-acetic acid]	> 100	< 5	5 to 100
COC(=O)[C@@H]1CN(S(=O)(=O)c2ccc3c(c2)C(C(=O)O)CC3)CCN1c1ccc(C(F)(F)F)cn1 (stereo partly drawn) [Example 40, (S)-4-(3-carboxy-indane-5-sulfonyl)-1-(5-trifluoromethyl-pyridin-2-yl)-piperazine-2-carboxylic acid methyl ester]	< 5	< 5	< 5
C[C@H]1CN(S(=O)(=O)c2ccc3c(c2)C(C(=O)O)CC3)CCN1c1ccc(C(F)(F)F)cn1 (stereo partly drawn) [Example 55]	< 5	< 5	< 5
